≈ marks a conversion by molar mass, not a printed value.
Assays:
Human FXIa = Human FXIa (Homo sapiens (Human), UniProt P03951); assay: Determination of the % inhibition for FXIa (fluorogenic substrate Z-Gly-Pro-Arg-AFC; 40 μM or IC50); assay type: biochemical
In short: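 Inhibition measured from initial reaction rate, followed as absorbance change at 410 nm, with substrate Z-Gly-Pro-Arg-AFC at 25 °C. Compound tested at a single 40 μM dose for percent inhibition, or across several concentrations to derive IC50 against human FXIa.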

Human KLK1 = Human KLK1 (Homo sapiens (Human), UniProt P06870); assay: Determination of the IC50 for KLK1 (fluorogenic substrate H-DVal-Leu-Arg-AFC); assay type: biochemical
In short: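 Inhibition read as initial rate via optical absorbance change at 410 nm, giving IC50. Reactions combined human KLK1, the substrate H-DVal-Leu-Arg-AFC and varied compound concentrations at 25° C.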

Human plasma kallikrein = Human plasma kallikrein (Homo sapiens (Human), UniProt P03952); assay: Determination of the IC50 for plasma kallikrein (fluorogenic substrate H-DPro-Phe-Arg-AFC); assay type: biochemical; details: class symbols A-D, read-out: IC50 (human PKal)
In short: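 IC50 values come from initial rates, monitored as the change in absorbance at 410 nm, of residual enzyme activity. Test compound was present at various concentrations with the fluorogenic substrate H-DPro-Phe-Arg-AFC, and the reaction was run at 25° C.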

[1] = Solubility after 24 hrs in Fasted State Simulated Intestinal Fluid (FaSSIF); assay type: physicochemical; details: 24 hrs at 37° C., nominal concentration 1 mg/mL (as free base); for solubility at 24 h: Fasted State Simulated Intestinal Fluid (FaSSIF), thermodynamic from solid
Protocol: Selected compounds were further screened for solubility in Fasted State Simulated Intestinal Fluid (FaSSIF).
Approximately 1 mg of test compound is accurately weighed into a 2 mL vial. Volumes of the FaSSIF solution (pre-heated to 37° C.) were added to a vial to give a nominal concentration of 1 mg/mL (as free base). The FaSSIF solution was prepared on the day of use. The samples were vortexed before being placed in a Titramax 1000 shaker for 24 hrs at 37° C. and approximately 500 rpm. The samples were transferred to eppendorf tubes and centrifuged at 15,000 g (r.c.f.) for 10 min at 37° C. and analysed for concentration of test compound by LCMS.

Sequence of Human KLK1 (P06870 25-262): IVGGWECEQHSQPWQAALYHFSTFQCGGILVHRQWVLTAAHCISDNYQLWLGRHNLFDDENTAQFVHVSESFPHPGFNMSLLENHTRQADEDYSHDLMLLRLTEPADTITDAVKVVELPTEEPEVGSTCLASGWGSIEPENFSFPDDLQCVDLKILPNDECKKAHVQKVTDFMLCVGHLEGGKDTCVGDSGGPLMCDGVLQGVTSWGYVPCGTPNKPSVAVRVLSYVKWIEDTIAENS
Sequence of Human FXIa (P03951 388-625): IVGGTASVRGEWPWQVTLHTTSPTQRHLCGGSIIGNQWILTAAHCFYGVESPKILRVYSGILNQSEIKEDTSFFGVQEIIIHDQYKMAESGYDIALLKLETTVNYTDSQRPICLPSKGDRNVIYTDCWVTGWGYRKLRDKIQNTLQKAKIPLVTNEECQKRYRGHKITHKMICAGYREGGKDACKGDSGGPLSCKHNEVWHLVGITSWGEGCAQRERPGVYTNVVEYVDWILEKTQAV
Sequence of Human FXIa (P03951 19-387 partner): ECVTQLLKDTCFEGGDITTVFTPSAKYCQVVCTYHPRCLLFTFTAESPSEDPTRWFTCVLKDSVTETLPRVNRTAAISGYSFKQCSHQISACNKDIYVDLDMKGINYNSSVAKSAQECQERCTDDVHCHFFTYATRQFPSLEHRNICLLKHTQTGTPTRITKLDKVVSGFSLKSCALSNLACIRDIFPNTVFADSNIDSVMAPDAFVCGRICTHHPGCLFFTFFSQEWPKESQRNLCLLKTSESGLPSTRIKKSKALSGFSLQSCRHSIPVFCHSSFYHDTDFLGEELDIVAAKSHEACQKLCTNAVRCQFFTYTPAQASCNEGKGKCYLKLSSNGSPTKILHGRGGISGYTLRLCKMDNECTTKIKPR
Sequence of Human plasma kallikrein (P03952 391-638): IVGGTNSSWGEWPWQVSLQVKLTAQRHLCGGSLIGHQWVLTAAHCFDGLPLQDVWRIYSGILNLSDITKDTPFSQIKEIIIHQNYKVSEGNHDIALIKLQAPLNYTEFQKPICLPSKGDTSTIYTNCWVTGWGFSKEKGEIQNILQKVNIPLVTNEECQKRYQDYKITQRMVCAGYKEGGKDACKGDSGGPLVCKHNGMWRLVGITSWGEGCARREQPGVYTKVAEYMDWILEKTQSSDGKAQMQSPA
Sequence of Human plasma kallikrein (P03952 20-390 partner): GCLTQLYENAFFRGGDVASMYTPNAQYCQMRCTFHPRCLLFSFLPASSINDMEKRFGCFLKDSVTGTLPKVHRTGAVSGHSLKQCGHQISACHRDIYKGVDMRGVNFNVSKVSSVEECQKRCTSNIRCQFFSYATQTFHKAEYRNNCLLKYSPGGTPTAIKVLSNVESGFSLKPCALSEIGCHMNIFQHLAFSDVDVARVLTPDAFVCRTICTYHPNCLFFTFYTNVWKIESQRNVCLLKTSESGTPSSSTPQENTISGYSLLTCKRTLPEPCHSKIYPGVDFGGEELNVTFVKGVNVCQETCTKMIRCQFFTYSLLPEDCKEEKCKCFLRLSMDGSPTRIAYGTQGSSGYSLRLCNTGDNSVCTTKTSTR

SMILES	IC50 (Human FXIa) [µM]	IC50 (Human KLK1) [µM]	IC50 (Human plasma kallikrein) [nM]	solubility at 24 h [1] [µg/mL]	FASSIF Solubility 24 hrs [1] [mg/mL]
COCc1nn(Cc2ccc3c(c2)CN(C)CC3)cc1C(=O)NCc1c(-n2cnc(C)n2)ccc(OC)c1F [Example 4, N-{[2-fluoro-3-methoxy-6-(3-methyl-1,2,4-triazol-1-yl)phenyl]methyl}-3-(methoxymethyl)-1-[(2-methyl-3,4-dihydro-1H-isoquinolin-7-yl)methyl]pyrazole-4-carboxamide]	1.03	> 40	< 10	> 1000	–
COCc1nn(Cc2ccc3c(c2)CN(C)CC3)cc1C(=O)NCc1c(-n2ccc(C#N)n2)ccc(OC)c1F [Example 11, N-{[6-(3-cyanopyrazol-1-yl)-2-fluoro-3-methoxyphenyl]methyl}-3-(methoxymethyl)-1-[(2-methyl-3,4-dihydro-1H-isoquinolin-7-yl)methyl]pyrazole-4-carboxamide]	18.9	> 40	< 10	730 (≈ 1340 µM)	–
COCc1nn(Cc2ccc3c(c2)CN(C(C)C)CC3)cc1C(=O)NCc1c(-n2cnc(C(F)(F)F)n2)ccc(OC)c1F [Example 22, N-({2-fluoro-3-methoxy-6-[3-(trifluoromethyl)-1,2,4-triazol-1-yl]phenyl}methyl)-1-[(2-isopropyl-3,4-dihydro-1H-isoquinolin-7-yl)methyl]-3-(methoxymethyl)pyrazole-4-carboxamide]	> 40	> 40	< 10	760 (≈ 1230 µM)	–
CCN1CCc2ccc(Cn3cc(C(=O)NCc4c(-n5cnc(C(F)(F)F)n5)ccc(OC)c4F)c(COC)n3)cc2C1 [Example 25, 1-[(2-ethyl-3,4-dihydro-1H-isoquinolin-7-yl)methyl]-N-({2-fluoro-3-methoxy-6-[3-(trifluoromethyl)-1,2,4-triazol-1-yl]phenyl}methyl)-3-(methoxymethyl)pyrazole-4-carboxamide]	> 40	> 40	< 10	1000 (≈ 1660 µM)	–
CCN1CCc2ccc(Cn3cc(C(=O)NCc4c(-n5cnc(C(F)F)n5)ccc(OC)c4F)c(COC)n3)cc2C1 [Example 26, N-({6-[3-(difluoromethyl)-1,2,4-triazol-1-yl]-2-fluoro-3-methoxyphenyl}methyl)-1-[(2-ethyl-3,4-dihydro-1H-isoquinolin-7-yl)methyl]-3-(methoxymethyl)pyrazole-4-carboxamide]	> 40	> 40	< 10	> 1000	–
CCN1CCc2ccc(Cn3cc(C(=O)NCc4c(-n5ccc(C#N)n5)ccc(OC)c4F)c(COC)n3)cc2C1 [Example 27, N-{[6-(3-cyanopyrazol-1-yl)-2-fluoro-3-methoxyphenyl]methyl}-1-[(2-ethyl-3,4-dihydro-1H-isoquinolin-7-yl)methyl]-3-(methoxymethyl)pyrazole-4-carboxamide]	33.9	> 40	< 10	960 (≈ 1720 µM)	–
[2H]C([2H])([2H])N1CCc2ccc(Cn3cc(C(=O)NCc4c(-n5cc(C)nn5)ccc(OC)c4F)c(COC)n3)cc2C1 [Example 119, N-{[2-fluoro-3-methoxy-6-(4-methyl-1,2,3-triazol-1-yl)phenyl]methyl}-3-(methoxymethyl)-1-{[2-(^2H3)methyl-3,4-dihydro-1H-isoquinolin-7-yl]methyl}pyrazole-4-carboxamide]	–	–	–	–	0.96
COCc1nn(Cc2cnc3c(c2)CN(C(C)C)CC3)cc1C(=O)NCc1c(-n2cc(C)nn2)ccc(OC)c1F [Example 132, N-{[2-fluoro-3-methoxy-6-(4-methyl-1H-1,2,3-triazol-1-yl)phenyl]methyl}-3-(methoxymethyl)-1-{[6-(propan-2-yl)-5,6,7,8-tetrahydro-1,6-naphthyridin-3-yl]methyl}-1H-pyrazole-4-carboxamide]	–	–	10 to 30	560 (≈ 995 µM)	–
COCc1nn(Cc2ccc3c(c2)CN(C)CC3(C)C)cc1C(=O)NCc1c(-n2cc(C)nn2)ccc(OC)c1F [Example 134, N-{[2-fluoro-3-methoxy-6-(4-methyl-1,2,3-triazol-1-yl)phenyl]methyl}-3-(methoxymethyl)-1-[(2,4,4-trimethyl-1,3-dihydroisoquinolin-7-yl)methyl]pyrazole-4-carboxamide]	> 40	> 40	10 to 30	–	–
COCc1nn(Cc2ccc3c(c2)CCN(C)C3=O)cc1C(=O)NCc1c(-n2cc(C)nn2)ccc(OC)c1F [Example 135, N-{[2-fluoro-3-methoxy-6-(4-methyl-1,2,3-triazol-1-yl)phenyl]methyl}-3-(methoxymethyl)-1-[(2-methyl-1-oxo-3,4-dihydroisoquinolin-6-yl)methyl]pyrazole-4-carboxamide]	16.3	> 40	10 to 30	–	–
COc1ccc(-n2cc(C)nn2)c(CNC(=O)c2cn(Cc3ccc4c(c3)CN(C(C)C)C4)c(C3CC3)n2)c1F [Example 150, 2-cyclopropyl-N-{[2-fluoro-3-methoxy-6-(4-methyl-1,2,3-triazol-1-yl)phenyl]methyl}-1-[(2-isopropyl-1,3-dihydroisoindol-5-yl)methyl]imidazole-4-carboxamide]	> 40	> 40	10 to 30	–	–
COCc1nn(Cc2ccc3c(c2)CN(C)CC3)cc1C(=O)NCc1c(-n2cnc(C(F)F)n2)ccc(Cl)c1F [Example 155, N-({3-chloro-6-[3-(difluoromethyl)-1,2,4-triazol-1-yl]-2-fluorophenyl}methyl)-3-(methoxymethyl)-1-[(2-methyl-3,4-dihydro-1H-isoquinolin-7-yl)methyl]pyrazole-4-carboxamide]	> 40	> 40	100 to 1000	–	–
COCc1nn(Cc2ccc3c(c2)CN(C)CC3)cc1C(=O)NCc1c(-n2cnc(C(F)F)n2)ccc(C(C)(F)F)c1F [Example 157, N-{[3-(1,1-difluoroethyl)-6-[3-(difluoromethyl)-1,2,4-triazol-1-yl]-2-fluorophenyl]methyl}-3-(methoxymethyl)-1-[(2-methyl-3,4-dihydro-1H-isoquinolin-7-yl)methyl]pyrazole-4-carboxamide]	> 40	> 40	100 to 1000	–	–
COCc1nn(Cc2ccc3c(c2)CCN(C)CC3)cc1C(=O)NCc1c(-n2cnc(C(F)(F)F)n2)ccc(OC)c1F [Example 158, N-({2-fluoro-3-methoxy-6-[3-(trifluoromethyl)-1,2,4-triazol-1-yl]phenyl}methyl)-3-(methoxymethyl)-1-[(3-methyl-1,2,4,5-tetrahydro-3-benzazepin-7-yl)methyl]pyrazole-4-carboxamide]	> 40	> 40	< 10	–	–
COc1ccc(-n2cc(C)nn2)c(CNC(=O)c2ccn(Cc3ccc4c(c3)CN(C)CC4)c(=O)c2)c1F [Example 159, N-{[2-fluoro-3-methoxy-6-(4-methyl-1,2,3-triazol-1-yl)phenyl]methyl}-1-[(2-methyl-3,4-dihydro-1H-isoquinolin-7-yl)methyl]-2-oxopyridine-4-carboxamide]	> 40	> 40	100 to 1000	–	–
COCc1nn(Cc2ccc3ccncc3c2)cc1C(=O)NCc1c(-n2cc(C)nn2)ccc(OC)c1F [RC1, N-{[2-fluoro-3-methoxy-6-(4-methyl-1,2,3-triazol-1-yl)phenyl]methyl}-1-(isoquinolin-7-ylmethyl)-3-(methoxymethyl)pyrazole-4-carboxamide, reference compound]	–	–	100 to 1000	40 (≈ 77.6 µM)	–
COCc1nn(Cc2cnc(N3CCCC3)nc2)cc1C(=O)NCc1c(-n2cnnn2)ccc(OC)c1F [RC4, N-{[2-fluoro-3-methoxy-6-(1,2,3,4-tetrazol-1-yl)phenyl]methyl}-3-(methoxymethyl)-1-{[2-(pyrrolidin-1-yl)pyrimidin-5-yl]methyl}pyrazole-4-carboxamide, reference compound]	–	> 40	< 10	170 (≈ 325 µM)	–
COCc1nn(Cc2cnc(N3CCCC3)nc2)cc1C(=O)NCc1c(-n2ccnn2)ccc(OC)c1F [RC5, N-{[2-fluoro-3-methoxy-6-(1,2,3-triazol-1-yl)phenyl]methyl}-3-(methoxymethyl)-1-{[2-(pyrrolidin-1-yl)pyrimidin-5-yl]methyl}pyrazole-4-carboxamide, reference compound]	–	–	–	20 (≈ 38.3 µM)	–
COCc1nn(Cc2cnc(N3CCCC3)nc2)cc1C(=O)NCc1c(-n2cc(C)nn2)ccc(OC)c1F [RC6, N-{[2-fluoro-3-methoxy-6-(4-methyl-1,2,3-triazol-1-yl)phenyl]methyl}-3-(methoxymethyl)-1-{[2-(pyrrolidin-1-yl)pyrimidin-5-yl]methyl}pyrazole-4-carboxamide, reference compound]	–	–	–	100 (≈ 187 µM)	–
